ChEMBL document CHEMBL4834472 (J Med Chem, 2021)
Active and inactive are the calls of the source. The rule behind the calls is not given here.

Assays:
[1] = target: Cyclin-dependent kinase 4/cyclin D1 (Homo sapiens, UniProt P11802); assay: Inhibition of CDK4/cyclin D1 (unknown origin) in presence of [32P]gammaATP by image analyser; assay type: protein-complex assay
MOLM-14 [2] = assay: Antiproliferative activity against human MOLM-14 cells assessed as cell death measured after 72 hrs by resazurin dye based assay; assay type: functional; details: MOLM-14, 72 h
MV4-11 [3] = assay: Induction of apoptosis in human MV4-11 cells assessed as caspase 7 activation using fluorescent substrate Ac-DEVD-AMC at 100 nM incubated for 24 hrs by Western blot analysis; assay type: functional, cell-based
THP-1 = assay: Antiproliferative activity against human THP-1 cells assessed as cell death measured after 72 hrs by resazurin dye based assay; assay type: functional; details: THP-1, 72 h
MOLM-13 = assay: Antiproliferative activity against human MOLM-13 cells assessed as cell death measured after 72 hrs by resazurin dye based assay; assay type: functional; details: MOLM-13, 72 h
MV4-11 [4] = assay: Induction of apoptosis in human MV4-11 cells assessed as increase in cleaved PARP1 level at 100 nM incubated for 24 hrs by Western blot analysis; assay type: functional, cell-based
[5] = target: Receptor-type tyrosine-protein kinase FLT3 (Homo sapiens) (UniProt P36888); assay: Inhibition of FLT3 in human MV4-11 cells assessed as ERK1/2 phosphorylation at 20 to 100 nM incubated for 1 hrs by Western blot analysis; assay type: cell-based; details: dose 20-100 nM
[6] = target: Cyclin-dependent kinase 1/cyclin B1 (Homo sapiens, UniProt P06493); assay: Inhibition of CDK1/cyclin B1 (unknown origin) in presence of [32P]gammaATP by image analyser; assay type: protein-complex assay
Sequence of Cyclin-dependent kinase 1/cyclin B1 (P06493 whole entry): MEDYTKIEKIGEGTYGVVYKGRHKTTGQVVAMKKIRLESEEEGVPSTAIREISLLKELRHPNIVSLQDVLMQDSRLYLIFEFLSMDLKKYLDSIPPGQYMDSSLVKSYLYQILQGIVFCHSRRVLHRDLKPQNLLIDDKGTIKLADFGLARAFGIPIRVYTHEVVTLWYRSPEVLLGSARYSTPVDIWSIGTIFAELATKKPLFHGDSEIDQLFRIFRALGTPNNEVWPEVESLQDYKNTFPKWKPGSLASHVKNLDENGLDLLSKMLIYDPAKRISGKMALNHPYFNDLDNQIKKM
Sequence of Cyclin-dependent kinase 1/cyclin B1 (P14635 whole entry, further chain): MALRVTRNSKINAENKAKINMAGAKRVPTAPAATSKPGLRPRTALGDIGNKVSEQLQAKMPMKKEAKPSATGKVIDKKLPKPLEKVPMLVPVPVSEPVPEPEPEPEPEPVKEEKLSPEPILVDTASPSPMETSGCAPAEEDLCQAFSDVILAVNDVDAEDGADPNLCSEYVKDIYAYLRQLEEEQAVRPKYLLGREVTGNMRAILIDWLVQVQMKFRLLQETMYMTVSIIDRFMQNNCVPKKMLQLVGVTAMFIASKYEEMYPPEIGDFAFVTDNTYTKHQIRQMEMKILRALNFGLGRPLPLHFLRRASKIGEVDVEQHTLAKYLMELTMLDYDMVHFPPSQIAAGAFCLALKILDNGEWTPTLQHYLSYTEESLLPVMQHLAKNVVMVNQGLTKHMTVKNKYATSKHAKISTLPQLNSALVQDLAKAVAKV

[7] = target: Receptor-type tyrosine-protein kinase FLT3 (Homo sapiens) (UniProt P36888); assay: Inhibition of FLT3 autophosphorylation in human MV4-11 cells at 20 to 100 nM incubated for 1 hrs by Western blot analysis; assay type: cell-based; details: dose 20-100 nM
[8] = target: Cyclin-dependent kinase 2/cyclin E1 (Homo sapiens, UniProt P24941); assay: Inhibition of CDK2/cyclin E1 (unknown origin) in presence of [32P]gammaATP by image analyser; assay type: protein-complex assay
[9] = target: Receptor-type tyrosine-protein kinase FLT3 (Homo sapiens) (UniProt P36888); assay: Inhibition of FLT3 in human MV4-11 cells assessed as STAT5 phosphorylation at Y694 at 20 to 100 nM incubated for 1 hrs by Western blot analysis; assay type: cell-based; details: dose 20-100 nM
MV4-11 [10] = assay: Induction of apoptosis in human MV4-11 cells assessed as decrease in MCL1 level at 100 nM incubated for 24 hrs by Western blot analysis; assay type: functional, cell-based
U-937 = assay: Antiproliferative activity against human U-937 cells assessed as cell death measured after 72 hrs by resazurin dye based assay; assay type: functional; details: U-937, 72 h
[11] = target: Receptor-type tyrosine-protein kinase FLT3 (Homo sapiens, UniProt P36888, ITD)
SEM cells = assay: Antiproliferative activity against human SEM cells assessed as cell death measured after 72 hrs by resazurin dye based assay; assay type: functional
MV4-11 [12] = assay: Induction of apoptosis in human MV4-11 cells assessed as caspase 3 activation using fluorescent substrate Ac-DEVD-AMC at 100 nM incubated for 24 hrs by Western blot analysis; assay type: functional, cell-based
CDK2/Cyclin A1 = CDK2/Cyclin A1 (Homo sapiens, UniProt P24941); assay type: protein-complex assay
Description: Inhibition of CDK2/Cyclin A1 (unknown origin) at 1 uM using histone H1 as substrate preincubated for 20 mins followed by 33P-ATP addition and measured after 2 hrs by filter binding method

BaF3 [13] = assay: Antiproliferative activity against mouse BaF3 cells assessed as cell death measured after 72 hrs by resazurin dye based assay; assay type: functional; details: BaF3, 72 h
MOLM-14 [14] = assay: Antiproliferative activity against human MOLM-14 cells harboring F691L mutant assessed as cell death measured after 72 hrs by resazurin dye based assay; assay type: functional; details: MOLM-14, 72 h
K562 = assay: cells; details: Homo sapiens, K562, 72 h
Description: Antiproliferative activity against human K562 cells assessed as cell death measured after 72 hrs by resazurin dye based assay

[15] = target: T1, Receptor-type tyrosine-protein kinase FLT3 (Homo sapiens, UniProt P36888); assay: Inhibition of wild type FLT3 (unknown origin) using AGLT peptide substrate in presence of [32P]gammaATP by image analyser
T1 sequence (P36888 whole entry): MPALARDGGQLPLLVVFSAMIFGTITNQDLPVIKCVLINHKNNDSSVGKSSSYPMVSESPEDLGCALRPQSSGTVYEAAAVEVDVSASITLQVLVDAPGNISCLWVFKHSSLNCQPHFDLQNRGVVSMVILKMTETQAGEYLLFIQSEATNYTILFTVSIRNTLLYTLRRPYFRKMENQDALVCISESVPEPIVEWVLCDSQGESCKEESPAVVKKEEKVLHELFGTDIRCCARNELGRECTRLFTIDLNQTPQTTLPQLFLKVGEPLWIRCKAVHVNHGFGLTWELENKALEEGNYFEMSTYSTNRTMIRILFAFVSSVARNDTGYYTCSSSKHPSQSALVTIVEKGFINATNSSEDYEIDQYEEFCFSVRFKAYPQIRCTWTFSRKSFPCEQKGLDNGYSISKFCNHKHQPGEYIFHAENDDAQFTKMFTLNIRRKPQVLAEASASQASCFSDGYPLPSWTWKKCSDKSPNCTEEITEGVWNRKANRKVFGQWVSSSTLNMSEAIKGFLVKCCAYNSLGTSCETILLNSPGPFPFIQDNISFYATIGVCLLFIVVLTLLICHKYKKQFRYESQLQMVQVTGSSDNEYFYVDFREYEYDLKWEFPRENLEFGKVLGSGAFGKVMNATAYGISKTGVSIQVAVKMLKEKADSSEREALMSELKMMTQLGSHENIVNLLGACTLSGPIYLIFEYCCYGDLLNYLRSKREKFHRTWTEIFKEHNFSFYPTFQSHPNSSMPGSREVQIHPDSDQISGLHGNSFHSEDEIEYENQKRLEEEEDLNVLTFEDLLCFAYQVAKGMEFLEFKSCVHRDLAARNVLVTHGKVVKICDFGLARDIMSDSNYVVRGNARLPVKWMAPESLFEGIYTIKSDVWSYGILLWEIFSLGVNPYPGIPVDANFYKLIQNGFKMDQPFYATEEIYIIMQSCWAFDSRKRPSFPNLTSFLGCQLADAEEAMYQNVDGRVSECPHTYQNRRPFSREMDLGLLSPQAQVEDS

MOLM-14 [16] = assay: Antiproliferative activity against human MOLM-14 cells harboring D835Y mutant assessed as cell death measured after 72 hrs by resazurin dye based assay; assay type: functional; details: MOLM-14, 72 h
MV4-11 [17] = assay: Induction of apoptosis in human MV4-11 cells assessed as effect on Bcl2 level at 100 nM incubated for 24 hrs by Western blot analysis; assay type: functional, cell-based
MV4-11 [18] = assay: cells; details: Homo sapiens, MV4-11, 72 h
Description: Antiproliferative activity against human MV4-11 cells assessed as cell death measured after 72 hrs by resazurin dye based assay

CCRF-CEM = assay: Antiproliferative activity against human CCRF-CEM cells assessed as cell death measured after 72 hrs by resazurin dye based assay; assay type: functional
CDK2/Cyclin A2 = CDK2/Cyclin A2 (Homo sapiens, UniProt P24941); assay: Inhibition of CDK2/cyclin A2 (unknown origin) in presence of [32P]gammaATP by image analyser; assay type: protein-complex assay
BaF3 [19] = assay: Antiproliferative activity against mouse BaF3 cells harboring FLt3 ITD mutant assessed as cell death measured after 72 hrs by resazurin dye based assay; assay type: functional; details: BaF3, 72 h
CDK9/cyclin T1 = CDK9/cyclin T1 (Homo sapiens, UniProt P50750); assay: Inhibition of CDK9/cyclin T1 (unknown origin) in presence of [32P]gammaATP by image analyser; assay type: protein-complex assay
Sequence of CDK9/cyclin T1 (O60563 whole entry): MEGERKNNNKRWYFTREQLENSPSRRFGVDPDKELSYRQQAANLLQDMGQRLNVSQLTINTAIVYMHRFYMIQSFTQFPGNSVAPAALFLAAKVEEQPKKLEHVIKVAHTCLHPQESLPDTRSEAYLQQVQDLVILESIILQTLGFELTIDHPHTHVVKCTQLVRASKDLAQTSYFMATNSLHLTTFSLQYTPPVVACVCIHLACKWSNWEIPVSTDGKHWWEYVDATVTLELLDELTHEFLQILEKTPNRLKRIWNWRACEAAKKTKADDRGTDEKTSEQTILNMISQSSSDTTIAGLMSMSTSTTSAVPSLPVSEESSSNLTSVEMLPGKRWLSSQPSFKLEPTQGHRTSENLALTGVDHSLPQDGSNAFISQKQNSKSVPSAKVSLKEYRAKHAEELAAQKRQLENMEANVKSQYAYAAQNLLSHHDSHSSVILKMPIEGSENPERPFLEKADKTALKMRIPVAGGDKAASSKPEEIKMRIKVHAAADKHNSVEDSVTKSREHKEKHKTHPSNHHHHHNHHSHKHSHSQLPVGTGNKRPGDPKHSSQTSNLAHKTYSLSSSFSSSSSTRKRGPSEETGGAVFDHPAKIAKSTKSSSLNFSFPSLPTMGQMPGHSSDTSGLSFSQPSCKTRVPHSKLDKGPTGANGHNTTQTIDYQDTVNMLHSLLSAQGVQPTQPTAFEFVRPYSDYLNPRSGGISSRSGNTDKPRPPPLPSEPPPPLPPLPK
Sequence of CDK9/cyclin T1 (P50750 whole entry): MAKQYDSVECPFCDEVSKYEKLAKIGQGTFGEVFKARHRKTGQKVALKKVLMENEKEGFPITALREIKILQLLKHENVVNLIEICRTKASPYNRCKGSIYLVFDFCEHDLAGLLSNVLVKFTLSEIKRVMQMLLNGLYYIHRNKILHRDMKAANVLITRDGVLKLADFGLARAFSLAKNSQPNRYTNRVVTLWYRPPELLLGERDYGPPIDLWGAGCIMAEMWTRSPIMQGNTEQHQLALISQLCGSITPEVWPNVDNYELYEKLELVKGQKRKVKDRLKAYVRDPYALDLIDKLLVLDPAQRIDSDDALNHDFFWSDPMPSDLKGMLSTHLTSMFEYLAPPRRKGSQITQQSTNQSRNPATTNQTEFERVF

Sequence of Cyclin-dependent kinase 4/cyclin D1 (P11802 whole entry): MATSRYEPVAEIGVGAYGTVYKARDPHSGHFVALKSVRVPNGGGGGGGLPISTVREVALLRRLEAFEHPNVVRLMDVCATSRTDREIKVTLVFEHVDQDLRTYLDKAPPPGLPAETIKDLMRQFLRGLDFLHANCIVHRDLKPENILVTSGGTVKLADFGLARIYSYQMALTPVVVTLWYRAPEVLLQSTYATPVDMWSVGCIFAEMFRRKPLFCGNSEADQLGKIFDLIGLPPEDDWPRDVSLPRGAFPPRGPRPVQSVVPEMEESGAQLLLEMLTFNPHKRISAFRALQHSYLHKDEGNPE
Sequence of Cyclin-dependent kinase 4/cyclin D1 (P24385 whole entry, further chain): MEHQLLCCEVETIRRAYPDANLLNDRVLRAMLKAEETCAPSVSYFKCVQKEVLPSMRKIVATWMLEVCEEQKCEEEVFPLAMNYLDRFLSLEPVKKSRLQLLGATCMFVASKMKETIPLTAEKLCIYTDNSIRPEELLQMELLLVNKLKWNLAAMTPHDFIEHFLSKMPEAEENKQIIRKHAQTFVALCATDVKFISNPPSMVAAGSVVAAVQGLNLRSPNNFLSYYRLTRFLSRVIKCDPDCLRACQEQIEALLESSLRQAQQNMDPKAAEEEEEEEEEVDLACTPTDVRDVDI

Row | SMILES | IC50 [1] [nM] | IC50 [6] [nM] | IC50 [8] [nM] | IC50 [11] [nM] | IC50 (CDK2/Cyclin A1) [nM] | IC50 (K562) [nM] | IC50 [15] [nM] | IC50 (MV4-11 [18]) [nM] | IC50 (CDK2/Cyclin A2) [nM] | IC50 (CDK9/cyclin T1) [nM] | IC50 (MOLM-14 [2]) [nM] | IC50 (THP-1) [nM] | IC50 (MOLM-13) [nM] | IC50 (U-937) [nM] | IC50 (SEM cells) [nM] | IC50 (BaF3 [13]) [nM] | IC50 (MOLM-14 [14]) [nM] | IC50 (MOLM-14 [16]) [nM] | IC50 (CCRF-CEM) [nM] | IC50 (BaF3 [19]) [nM] | other results
1 | Fc1cc2[nH]ncc2c2c3c(c(-c4cn[nH]c4)nc12)CCCC3 | > 1000 | 119 | 55 | 43 | 39 | 3280 | 21 | 22 | 39 | 196 | 79 | 1900 | 49 | 3170 | 1050 | 15100 | 50 | 46 | 5480 | 814 | 
2 | Fc1ccc(-c2cc(-c3c[nH]nc3C(F)(F)F)nc3ccc4[nH]ncc4c23)cc1Cl |  |  |  | > 20000 | 1270 | 65900 |  | 25700 |  |  |  |  |  |  |  |  |  |  |  |  | 
3 | Fc1n[nH]c2ccc3nc(-c4c[nH]nc4C(F)(F)F)c4c(c3c12)CCCC4 |  |  |  | 31 | 272 | 31200 |  | 660 |  |  |  |  |  |  |  |  |  |  |  |  | 
4 | O=S1(=O)CCc2c(c(-c3c[nH]nc3C(F)(F)F)nc3ccc4[nH]ncc4c23)C1 |  |  |  | 799 | 231 | > 100000 |  | 765 |  |  |  |  |  |  |  |  |  |  |  |  | 

Now those with a lower IC50 [11], led by results:

Row | IC50 [1] [nM] | IC50 [6] [nM] | IC50 [8] [nM] | IC50 [11] [nM] | IC50 (CDK2/Cyclin A1) [nM] | IC50 (K562) [nM] | IC50 [15] [nM] | IC50 (MV4-11 [18]) [nM] | IC50 (CDK2/Cyclin A2) [nM] | IC50 (CDK9/cyclin T1) [nM] | SMILES | IC50 (MOLM-14 [2]) [nM] | IC50 (THP-1) [nM] | IC50 (MOLM-13) [nM] | IC50 (U-937) [nM] | IC50 (SEM cells) [nM] | IC50 (BaF3 [13]) [nM] | IC50 (MOLM-14 [14]) [nM] | IC50 (MOLM-14 [16]) [nM] | IC50 (CCRF-CEM) [nM] | IC50 (BaF3 [19]) [nM] | other results
5 | > 1000 | 140 | 182 | 1 | 158 | 9200 | 7 | 20 | 158 | > 1000 | Cc1n[nH]c2cc(F)c3nc(-c4c[nH]nc4C(F)(F)F)c4c(c3c12)CCCC4 | 14 | 2850 | 7 | 2580 | 111 | 5980 | 48 | 7 | 5730 | 16 | Activity (MV4-11 [3]): Active; Activity (MV4-11 [4]): Active; inhibition [5]: inactive; inhibition [7]: Active; inhibition [9]: Active; Activity (MV4-11 [10]): Active; Activity (MV4-11 [12]): Active; Activity (MV4-11 [17]): Active
6 | > 1000 | 52 | 33 | 12 | 39 | 7230 | 31 | 7 | 39 | 538 | Fc1cc2[nH]ncc2c2c3c(c(-c4c[nH]nc4C(F)(F)F)nc12)CCCC3 | 28 | 3460 | 6 | 2240 | 180 | 3880 | 42 | 17 | 3740 | 42 | Activity (MV4-11 [3]): Active; Activity (MV4-11 [4]): Active; inhibition [5]: inactive; inhibition [7]: Active; inhibition [9]: Active; Activity (MV4-11 [10]): Active; Activity (MV4-11 [12]): Active; Activity (MV4-11 [17]): Active
7 | > 1000 | 203 | 102 | 3 | 141 | 9720 | 32 | 30 | 141 | > 1000 | OCc1n[nH]c2ccc3nc(-c4c[nH]nc4C(F)(F)F)c4c(c3c12)CCCC4 | 36 | 16900 | 18 | 4820 | 437 | 16100 | 91 | 16 | 5210 | 124 | Activity (MV4-11 [3]): Active; Activity (MV4-11 [4]): Active; inhibition [5]: inactive; inhibition [7]: Active; inhibition [9]: Active; Activity (MV4-11 [10]): Active; Activity (MV4-11 [12]): Active; Activity (MV4-11 [17]): Active
